Test results from patent publication US8003785B2 (Takeda Pharmaceutical Company Limited, priority 2008, dated 2011).

molecular target: T1, PLK1 (Homo sapiens, UniProt P53350); assay: Biochemical Characterization Assay: HTRF kinase assay, GST-PLK1 phosphorylation of GST-p53; details: GST-PLK1, GST-p53 substrate, ATP
T1 construct: Full-length, active GST-PLK1 is purified from Sf9 insect cells; made in house; host or cells: Sf9 insect cells
How it was run: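 HTRF read-out of p53 phosphorylation: after EDTA stop, anti-phospho-p53 antibody bound 30 min at 37 °C in HEPES pH 7 buffer, with Eu-anti-rabbit/APC-anti-GST detection. Kinase step used full-length Sf9-expressed GST-PLK1 (3 ug/mL) and E. coli GST-p53 substrate, 35 min at 37 °C.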

T1 sequence (P53350 whole entry): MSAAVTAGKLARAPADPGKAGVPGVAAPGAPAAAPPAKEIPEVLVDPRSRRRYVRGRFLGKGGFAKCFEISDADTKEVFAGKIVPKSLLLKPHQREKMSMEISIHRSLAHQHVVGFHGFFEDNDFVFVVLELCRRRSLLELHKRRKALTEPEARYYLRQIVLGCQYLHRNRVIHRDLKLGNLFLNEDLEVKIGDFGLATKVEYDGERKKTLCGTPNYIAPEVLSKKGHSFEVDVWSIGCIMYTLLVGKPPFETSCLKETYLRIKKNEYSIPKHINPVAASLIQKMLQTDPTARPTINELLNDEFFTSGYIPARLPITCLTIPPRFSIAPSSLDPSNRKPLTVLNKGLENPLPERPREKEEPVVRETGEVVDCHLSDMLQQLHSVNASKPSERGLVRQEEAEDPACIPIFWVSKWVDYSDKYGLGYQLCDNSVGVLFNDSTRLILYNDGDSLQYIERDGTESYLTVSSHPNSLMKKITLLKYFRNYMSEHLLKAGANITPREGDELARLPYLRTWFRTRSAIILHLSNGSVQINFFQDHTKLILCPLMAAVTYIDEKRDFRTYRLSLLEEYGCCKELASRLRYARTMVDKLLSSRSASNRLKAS

Row | SMILES | IC50 [µM]
1 | COc1cc(C(=O)NCC2CN(C(=O)OC(C)(C)C)C2)ccc1Nc1ncc2c(n1)N(C1CCCC1)CC(F)(F)C(=O)N2C [Example I-91, 3-{[4-(9-cyclopentyl-7,7-difluoro-5-methyl-6-oxo-6,7,8,9-tetrahydro-5H-pyrimido[4,5-b][1,4]diazepin-2-ylamino)-3-methoxy-benzoylamino]-methyl}-azetidine-1-carboxylic acid tert-butyl ester] | 0.001 to 0.05
2 | COc1cc(C(=O)NCC2CCN(C(=O)OC(C)(C)C)C2)ccc1Nc1ncc2c(n1)N(C1CCCC1)CC(F)(F)C(=O)N2C (centres unmarked) [Example I-92, 3-{[4-(9-cyclopentyl-7,7-difluoro-5-methyl-6-oxo-6,7,8,9-tetrahydro-5H-pyrimido[4,5-b][1,4]diazepin-2-ylamino)-3-methoxy-benzoylamino]-methyl}-pyrrolidine-1-carboxylic acid tert-butyl ester] | 0.051 to 0.5
3 | COc1cc(C(=O)NCC2CCNC2)ccc1Nc1ncc2c(n1)N(C1CCCC1)CC(F)(F)C(=O)N2C (centres unmarked) [Example I-93, 4-(9-cyclopentyl-7,7-difluoro-5-methyl-6-oxo-6,7,8,9-tetrahydro-5H-pyrimido[4,5b][1,4]diazepin-2-ylamino)-3-methoxy-N-pyrrolidin-3-ylmethyl-benzamide] | 0.001 to 0.05
4 | COc1cc(C(=O)NCCCN2CCN(C(=O)OC(C)(C)C)CC2)ccc1Nc1ncc2c(n1)N(C1CCCC1)CC(F)(F)C(=O)N2C [Example I-94, 4-{3-[4-(9-cyclopentyl-7,7-difluoro-5-methyl-6-oxo-6,7,8,9-tetrahydro-5H-pyrimido[4,5-b][1,4]diazepin-2-ylamino)-3-methoxy-benzoylamino]-propyl}-piperazine-1-carboxylic acid tert-butyl ester] | 0.001 to 0.05
5 | COc1cc(C(=O)NCCCN2CCNCC2)ccc1Nc1ncc2c(n1)N(C1CCCC1)CC(F)(F)C(=O)N2C [Example I-95, 4-(9-cyclopentyl-7,7-difluoro-5-methyl-6-oxo-6,7,8,9-tetrahydro-5H-pyrimido[4,5-b][1,4]diazepin-2-ylamino)-3-methoxy-N-(3-piperazin-1-yl-propyl)-benzamide] | 0.001 to 0.05
6 | COc1cc(C(=O)NCCCN2CCN(CCO)CC2)ccc1Nc1ncc2c(n1)N(C1CCCC1)CC(F)(F)C(=O)N2C [Example I-96, 4-(9-cyclopentyl-7,7-difluoro-5-methyl-6-oxo-6,7,8,9-tetrahydro-5H-pyrimido[4,5-b][1,4]diazepin-2-ylamino)-N-{3-[4-(2-hydroxy-ethyl)-piperazin-1-yl]-propyl}-3-methoxy-benzamide] | 0.001 to 0.05
7 | COc1cc(C(=O)N[C@H]2CC[C@@H](NC(=O)OC(C)(C)C)CC2)ccc1Nc1ncc2c(n1)N(C1CCCC1)CC(F)(F)C(=O)N2C [Example I-97, cis-{4-[4-(9-cyclopentyl-7,7-difluoro-5-methyl-6-oxo-6,7,8,9-tetrahydro-5H-pyrimido[4,5-b][1,4]diazepin-2-ylamino)-3-methoxy-benzoylamino]-cyclohexyl}-carbamic acid tert-butyl ester] | 0.051 to 0.5
8 | COc1cc(C(=O)N[C@H]2CC[C@@H](N)CC2)ccc1Nc1ncc2c(n1)N(C1CCCC1)CC(F)(F)C(=O)N2C [Example I-98, cis-N-(4-amino-cyclohexyl)-4-(9-cyclopentyl-7,7-difluoro-5-methyl-6-oxo-6,7,8,9-tetrahydro-5H-pyrimido[4,5-b][1,4]diazepin-2-ylamino)-3-methoxy-benzamide] | 0.001 to 0.05
9 | COc1cc(C(=O)N[C@@H]2CN(C(=O)OC(C)(C)C)C[C@H]2O)ccc1Nc1ncc2c(n1)N(C1CCCC1)CC(F)(F)C(=O)N2C [Example I-103, (3R,4R)-3-[4-(9-cyclopentyl-7,7-difluoro-5-methyl-6-oxo-6,7,8,9-tetrahydro-5H-pyrimido[4,5-b][1,4]diazepin-2-ylamino)-3-methoxy-benzoylamino]-4-hydroxy-pyrrolidine-1-carboxylic acid tert-butyl ester] | 0.001 to 0.05
10 | COc1cc(C(=O)N[C@@H]2CNC[C@H]2O)ccc1Nc1ncc2c(n1)N(C1CCCC1)CC(F)(F)C(=O)N2C [Example I-104, 4-(9-cyclopentyl-7,7-difluoro-5-methyl-6-oxo-6,7,8,9-tetrahydro-5H-pyrimido[4,5-b][1,4]diazepin-2-ylamino)-N-((3R,4R)-4-hydroxy-pyrrolidin-3-yl)-3-methoxy-benzamide] | 0.001 to 0.05
11 | COc1cc(C(=O)NCCCN2CCC(O)CC2)ccc1Nc1ncc2c(n1)N(C1CCCC1)CC(F)(F)C(=O)N2C [Example I-105, 4-(9-cyclopentyl-7,7-difluoro-5-methyl-6-oxo-6,7,8,9-tetrahydro-5H-pyrimido[4,5-b][1,4]diazepin-2-ylamino)-N-[3-(4-hydroxy-piperidin-1-yl)-propyl]-3-methoxy-benzamide] | 0.001 to 0.05
12 | COc1cc(C(=O)NC2CN3CCC2CC3)ccc1Nc1ncc2c(n1)N(C1CCCC1)CC(F)(F)C(=O)N2C [Example I-106, N—(R)-1-aza-bicyclo[2.2.2]oct-3-yl-4-(9-cyclopentyl-7,7-difluoro-5-methyl-6-oxo-6,7,8,9-tetrahydro-5H-pyrimido[4,5-b][1,4]diazepin-2-ylamino)-3-methoxy-benzamide] | 0.001 to 0.05

Further lines, results first:

Row | IC50 [µM] | SMILES
13 | 0.001 to 0.05 | COc1cc(C(=O)N[C@H]2CCNC(=O)C2)ccc1Nc1ncc2c(n1)N(C1CCCC1)CC(F)(F)C(=O)N2C [Example I-90, S-4-(9-cyclopentyl-7,7-difluoro-5-methyl-6-oxo-6,7,8,9-tetrahydro-5H-pyrimido[4,5-b][1,4]diazepin-2-ylamino)-3-methoxy-N-(2-oxo-piperidin-4-yl)-benzamide]
14 | 0.001 to 0.05 | COc1cc(C(=O)NC2CN(C)C2)ccc1Nc1ncc2c(n1)N(C1CCCC1)CC(F)(F)C(=O)N2C [Example I-99, 4-(9-cyclopentyl-7,7-difluoro-5-methyl-6-oxo-6,7,8,9-tetrahydro-5H-pyrimido[4,5-b][1,4]diazepin-2-ylamino)-3-methoxy-N-(1-methyl-azetidin-3-yl)-benzamide]
15 | 0.001 to 0.05 | COc1cc(C(=O)N[C@H]2CCN(Cc3ccccc3)C2)ccc1Nc1ncc2c(n1)N(C1CCCC1)CC(F)(F)C(=O)N2C [Example I-100, N—((S)-1-benzyl-pyrrolidin-3-yl)-4-(9-cyclopentyl-7,7-difluoro-5-methyl-6-oxo-6,7,8,9-tetrahydro-5H-pyrimido[4,5-b][1,4]diazepin-2-ylamino)-3-methoxy-benzamide]
16 | 0.001 to 0.05 | COc1cc(C(=O)N[C@@H]2CCN(Cc3ccccc3)C2)ccc1Nc1ncc2c(n1)N(C1CCCC1)CC(F)(F)C(=O)N2C [Example I-101, N—((R)-1-benzyl-pyrrolidin-3-yl)-4-(9-cyclopentyl-7,7-difluoro-5-methyl-6-oxo-6,7,8,9-tetrahydro-5H-pyrimido[4,5-b][1,4]diazepin-2-ylamino)-3-methoxy-benzamide]
17 | 0.001 to 0.05 | COc1cc(C(=O)NC2CCN(C(C)=O)CC2)ccc1Nc1ncc2c(n1)N(C1CCCC1)CC(F)(F)C(=O)N2C [Example I-102, N-(1-acetyl-piperidin-4-yl)-4-(9-cyclopentyl-7,7-difluoro-5-methyl-6-oxo-6,7,8,9-tetrahydro-5H-pyrimido[4,5-b][1,4]diazepin-2-ylamino)-3-methoxy-benzamide]
